Measured values as given in patent US20100240603A1, “EXPRESSION INHIBITOR OF NUCLEAR TRANSCRIPTION FACTOR AP-1 AND PHARMACEUTICALS AND PRODUCTS USING THE SAME” (ARKRAY, INC., priority 2006, published 2010).
In brackets after ≈: the same amount, converted by molar mass.

Assays:
[1] = test system: NF-κB; test: NF-κB SEAP reporter assay in TNF-alpha-stimulated HeLa cells; type: cell-based; details: TNF-alpha 40 ng/mL, 24 h
Method: (§1) HeLa cells were tripsinized and centrifuged at 4° C. and 1,000 rpm for 3 minutes. The collected Hela cells were seeded on a 30-mm dish so that the density was 2×10^5 cells/well, which served as a test plate. With the test plate being placed at 37° C. for 12 hours in the presence of 5% CO2, the cells were cultured and were then transformed. For the transformation, two types of vectors were transfected into the aforementioned cells using a transformation reagent (trade name: Effectene Transfection Reagent, QIAGEN). The vectors used herein were pNF-κB-SEAP (trade name) (CLONTECH) (0.4 μg) and pLuc-control (trade name) (CLONTECH) (0.02 μg). The cells transfected with both of the vectors were cultured at 37° C. for 16 hours in the presence of 5% CO2, and then the cultured cells were detached from the aforementioned test plate using trypsin. The detached cells were dispensed into a 96-well plate so that 0.2×10^4 cells were contained in each well. The cells thus dispensed were cultured for two hours. […] The medium thus collected was evaluated for the secreated alkaline phosphatase (SEAP) activity based on the activity of NF-κB contained in the medium using a kit (trade name: Great EscAPe SEAP kit, CLONTECK). […]

[2] = test system: nuclear transcription factor AP-1; test: nuclear transcription factor AP-1 SEAP reporter assay in TPA-stimulated HeLa cells; type: cell-based; details: TPA 4 μg/mL, 24 h
Method: as §1, with “were pAP-1 (PMA)-SEAP” for “were pNF-κB-SEAP”, “of the nuclear transcription factor AP-1” for “of NF-κB”, “the medium,” for “the medium”

IC50 ([1]; Homo sapiens, HeLa cells transfected with pNF-κB-SEAP and pLuc-control, corrected by luciferase activity, read-out: IC50 of inhibition of NF-κB expression (SEAP activity)): 80 µg/mL (≈ 139 µM) | IC50 ([2]; Homo sapiens, HeLa cells transfected with pAP-1 (PMA)-SEAP and pLuc-control, corrected by luciferase activity, read-out: IC50 of inhibition of nuclear transcription factor AP-1 expression (SEAP activity)): 5 µg/mL (≈ 8.67 µM)
SMILES: CC(O)(CC(=O)O)CC(=O)OCC1OC(Oc2cc(O)c3c(=O)cc(-c4ccc(O)cc4)oc3c2)C(O)C(O)C1O (stereo not shown) [chamaemeloside, apigenin 7-glucoside-6″-(3′″-hydroxy-3′″-methyl-glutarate)]
expression of NF-κB (FIG. 3) ([1]; HeLa cells): inhibited the expression of NF-κB in a concentration-dependent manner | expression of the nuclear transcription factor AP-1 (FIG. 2) ([2]; HeLa cells, 10, 5.0, 2.5, 1.0 μg/mL): suppressed (inhibited) in a concentration-dependent manner
